The target in one experiment is T1, BRD4 BD1 (Homo sapiens, UniProt O60885).
T1 construct: made in house
Briefly: AlphaScreen binding assay, BRD4 Bromodomain 1. Put shortly: (§1)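 An AlphaScreen competition format was used with His-BRD4 BD1 or BD2 and biotin-H4 K5/8/12/16-acetyl peptide, each at matched final levels of 50 nM (BD1) or 100 nM (BD2). Incubation in HEPES/NaCl buffer with 0.1% BSA and 0.01% Triton X-100 ran ≥1 h before IC50 determination.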

The next experiment deals with T2, BRD4 BD2 (Homo sapiens, UniProt O60885).
T2 construct: made in house
Briefly: AlphaScreen binding assay, BRD4 Bromodomain 2. In short, it runs like this: as §1

For `CC(C)OC(=O)N1C[C@H](C)N(C(=O)C2CC2)c2ccc(-c3cnn(CC(=O)N(C)C4CC4)c3)cc21` [Example I-610], the values for the IC50 at BRD4 BD1 and on BRD4 BD2 were 1000 to 10000 nM and 50 to 500 nM, respectively.

With `CC(=O)N1c2ccccc2N(C(=O)Cn2cnc3ccccc32)C[C@@H]1C` [Example I-766], the figures for the IC50 at BRD4 BD1 and at BRD4 BD2 were more than 10000 nM and more than 500 nM, respectively.

Regarding `CC(=O)N1c2ccccc2N(C(=O)CC2CCOCC2)C[C@@H]1C` [Example I-706], the results for the IC50 on BRD4 BD1 and at BRD4 BD2 were more than 10000 nM and more than 500 nM, respectively.

Consider `CC(=O)N1c2ccc(-c3ccc(S(C)(=O)=O)cc3)cc2N(C(=O)CC2CCCC2)C[C@@H]1C` [Example I-246], for which the values for the 50% inhibitory concentration (IC50) on BRD4 BD1 and on BRD4 BD2 were 1000 to 10000 nM and 50 to 500 nM, respectively.

For the compound `CC(=O)N1c2ccccc2N(C(=O)Cc2csc3ccc(Cl)cc23)C[C@@H]1C` [Example I-739], the results for the IC50 on BRD4 BD1 and on BRD4 BD2 were more than 10000 nM and more than 500 nM, respectively.

Turning to `CC(=O)N1c2ccccc2N(C(=O)CCN(C)C)C[C@@H]1C` [Example I-693], the results for the IC50 on BRD4 BD1 and on BRD4 BD2 were more than 10000 nM and more than 500 nM, respectively.

With `CC(=O)N1c2ccccc2N(CC2CCN(C(C)C)CC2)C[C@@H]1C` [Example I-929], the values for the IC50 at BRD4 BD1 and at BRD4 BD2 were more than 10000 nM and more than 500 nM, respectively.

For the compound `CC(=O)N1c2ccc(-c3cnn(C4CC4)c3)nc2N(C(=O)Nc2ccc(F)cc2)C[C@@H]1C` [Example I-192, (S)-1-acetyl-6-(1-cyclopropyl-1H-pyrazol-4-yl)-N-(4-fluorophenyl)-2-methyl-2,3-dihydropyrido[2,3-b]pyrazine-4(1H)-carboxamide], the IC50 was more than 10000 nM on BRD4 BD1 and more than 500 nM at BRD4 BD2.

With `COc1ccc(S(=O)(=O)N2C[C@H](C)N(C(C)=O)c3ccccc32)c(C)c1` [Example I-960], the figures for the IC50 at BRD4 BD1 and at BRD4 BD2 were more than 10000 nM and more than 500 nM, respectively.

Turning to `CC(=O)N1c2ccccc2N(S(=O)(=O)c2ccc(OC(F)(F)F)cc2)C[C@@H]1C` [Example I-939], the figures for the IC50 on BRD4 BD1 and on BRD4 BD2 were more than 10000 nM and more than 500 nM, respectively.

In the case of `CC(=O)N1c2ccc(-c3ccc(-n4cccn4)c(F)c3)cc2N(C(=O)c2ccco2)C[C@@H]1C` [Example I-814], the IC50 at BRD4 BD1 is 1000 to 10000 nM; at BRD4 BD2 it was less than 50 nM.

As for `CC(=O)N1c2ccccc2N(C(=O)c2csc(Nc3cccnc3)n2)C[C@@H]1C` [Example I-725], the IC50 at BRD4 BD1 is more than 10000 nM; at BRD4 BD2 it was more than 500 nM.

As to `CC(=O)N1c2ccc(-c3cnn(C4CC4)c3)nc2N(C(=O)OC(C)C)C[C@@H]1C` [Example I-255], the concentration for half-maximal inhibition (IC50) was 1000 to 10000 nM at BRD4 BD1 and 50 to 500 nM on BRD4 BD2.

Consider `CC(=O)N1c2ccccc2N(C(=O)c2cc(C)c(C)o2)C[C@@H]1C` [Example I-750], for which the IC50 on BRD4 BD1 was more than 10000 nM; on BRD4 BD2, more than 500 nM.

As to `CC(=O)N1c2ccccc2N(C(=O)c2cc(C)on2)C[C@@H]1C` [Example I-722], the IC50 at BRD4 BD1 was more than 10000 nM; on BRD4 BD2, more than 500 nM.

Regarding `COc1cncc(-c2ccc3c(c2)N(C(=O)c2ccco2)C[C@H](C)N3C(C)=O)c1` [Example I-835], the IC50 at BRD4 BD1 was in the range of 1000 to 10000 nM; on BRD4 BD2, 50 to 500 nM.

In the case of `CC(C)OC(=O)N1C[C@H](C)N(C(=O)C2CC2)c2ccc(-c3cnn(CCNS(C)(=O)=O)c3)cc21` [Example I-613], the results for the IC50 on BRD4 BD1 and at BRD4 BD2 were 1000 to 10000 nM and more than 500 nM, respectively.

On to `COC(=O)N1c2ccc(-c3cnn(CCS(C)(=O)=O)c3)cc2N(C(=O)Oc2cccnc2)C[C@@H]1C` [Example I-1280], for which the IC50 on BRD4 BD1 lay within 1000 to 10000 nM; at BRD4 BD2, 50 to 500 nM.

As to `C[C@H]1CN(C(=O)c2ccco2)c2cc(-c3ccc(S(C)(=O)=O)cc3)ccc2N1C=O` [Example I-103, (S)-4-(furan-2-carbonyl)-2-methyl-6-(4-(methylsulfonyl)phenyl)-3,4-dihydroquinoxaline-1(2H)-carbaldehyde], the values for the IC50 on BRD4 BD1 and at BRD4 BD2 were more than 10000 nM and more than 500 nM, respectively.

As for `CC(=O)N1c2ccc(-c3cnccn3)cc2N(C(=O)c2ccco2)C[C@@H]1C` [Example I-384], the concentration for half-maximal inhibition (IC50) lay within 1000 to 10000 nM at BRD4 BD1 and 50 to 500 nM at BRD4 BD2.

In the case of `CC(=O)N1c2ccccc2N(Cc2ccc(Cl)c(F)c2)C[C@@H]1C` [Example I-898], the figures for the IC50 at BRD4 BD1 and at BRD4 BD2 were more than 10000 nM and more than 500 nM, respectively.

For the compound `CC(=O)N1c2ccc(-c3cnn(C4CC4)c3)cc2N(C(=O)Oc2cc(F)ccc2C)C[C@@H]1C` [Example I-1200], the values for the IC50 at BRD4 BD1 and at BRD4 BD2 were 1000 to 10000 nM and 50 to 500 nM, respectively.

As for `CCC1(COC(=O)N2C[C@H](C)N(C(C)=O)c3ccc(-c4cnn(C5COC5)c4)cc32)COC1` [Example I-63, (S)-(3-ethyloxetan-3-yl)methyl 4-acetyl-3-methyl-7-(1-(oxetan-3-yl)-1H-pyrazol-4-yl)-3,4-dihydroquinoxaline-1(2H)-carboxylate], the values for the IC50 at BRD4 BD1 and at BRD4 BD2 were 1000 to 10000 nM and 50 to 500 nM, respectively.

`COC(=O)N1c2ccc(-c3ccc(C(=O)NCCN)cc3)cc2N(C(=O)C2CC2)C[C@@H]1C` [Example I-463]: the IC50 fell in the range of 1000 to 10000 nM at BRD4 BD1 and 50 to 500 nM at BRD4 BD2.

As for `CC(=O)N1c2ccc(-c3ccc(S(C)(=O)=O)cc3)cc2N(C(=O)c2ccc(OC(F)(F)F)cc2)C[C@@H]1C` [Example I-879], the IC50 is more than 10000 nM on BRD4 BD1 and more than 500 nM at BRD4 BD2.

On to `CC(=O)N1c2ccc(-c3ccc(S(C)(=O)=O)cc3)cc2N(C(=O)CC#N)C[C@@H]1C` [Example I-247], for which the half-inhibitory concentration (IC50) on BRD4 BD1 is more than 10000 nM; on BRD4 BD2 it was more than 500 nM.

Turning to `CC(=O)N1c2ccc(-c3ccc(S(C)(=O)=O)cc3)cc2N(c2ccccn2)C[C@@H]1C` [Example I-47, (S)-1-(2-methyl-6-(4-(methylsulfonyl)phenyl)-4-(pyridin-2-yl)-3,4-dihydroquinoxalin-1 (2H)-yl)ethan-1-one], the IC50 at BRD4 BD1 is 1000 to 10000 nM; on BRD4 BD2 it was less than 50 nM.

With `CC(=O)N1c2ccccc2N(C(=O)Cc2nc(-c3ccccc3)oc2C)C[C@@H]1C` [Example I-769], the IC50 is more than 10000 nM on BRD4 BD1 and more than 500 nM on BRD4 BD2.

With `CC(=O)N1c2ccc(-c3cccc4c3cnn4C)cc2N(C(=O)c2ccco2)C[C@@H]1C` [Example I-858], the half-inhibitory concentration (IC50) on BRD4 BD1 fell in the range of 1000 to 10000 nM; at BRD4 BD2, 50 to 500 nM.

As for `CC(=O)N1c2ccc(-c3cc(C(F)(F)F)nn3C)cc2N(C(=O)c2ccco2)C[C@@H]1C` [Example I-851], the half-maximal inhibitory concentration (IC50) at BRD4 BD1 is more than 10000 nM; at BRD4 BD2, more than 500 nM.

With `CC(=O)N1c2ccc(-c3cnn(C4COC4)c3)cc2N(C(=O)C(F)F)C[C@@H]1C` [Example I-106, (S)-1-(4-acetyl-3-methyl-7-(1-(oxetan-3-yl)-1H-pyrazol-4-yl)-3,4-dihydroquinoxalin-1(2H)-yl)-2,2-difluoroethanone], the IC50 at BRD4 BD1 was more than 10000 nM; at BRD4 BD2, 50 to 500 nM.

Take `COc1cccc(CC(=O)N2C[C@H](C)N(C(C)=O)c3ccccc32)c1` [Example I-699]: the results for the IC50 at BRD4 BD1 and at BRD4 BD2 were more than 10000 nM and more than 500 nM, respectively.

Regarding `C[C@H]1CN(C(=O)OC2COC2)c2cc(-c3cnn(C4CC4)c3)ccc2N1C(=O)C1CC1` [Example I-998], the IC50 at BRD4 BD1 is 1000 to 10000 nM; on BRD4 BD2, more than 500 nM.

As to `COC(=O)N1c2ccc(-c3cnn(CC(=O)N4CCCCC4)c3)cc2N(C(=O)OC(C)C)C[C@@H]1C` [Example I-629], the results for the IC50 at BRD4 BD1 and at BRD4 BD2 were 1000 to 10000 nM and 50 to 500 nM, respectively.

Consider `CC(=O)N1c2ccc(-c3cnsc3)cc2N(C(=O)c2ccco2)C[C@@H]1C` [Example I-432], for which the IC50 fell in the range of 100 to 1000 nM on BRD4 BD1 and 50 to 500 nM at BRD4 BD2.

One may read the IC50 as the concentration at which inhibition is half-maximal.

These data come from patent US10703764B2, “Benzopiperazine compositions as BET bromodomain inhibitors” (FORMA Therapeutics, Inc., priority 2013, dated 2020).
